Experiment: Phosphorus dissolution from sintered hydroxyapatite (tooth enamel model) in 2 wt. % citric acid, ICP-AES
Conditions: for Phosphorus Dissolution Rate (%): 2 wt. % citric acid, pH 2.5, shaken two days, negative control = 100%
Experimental: In order to evaluate the inhibitory activity of subject substances on the dissolution (decalcification) of tooth enamel, the following tests were conducted using sintered hydroxyapatite as a tooth enamel model.
Thus, 10 ml of test solution was prepared. The test solution (10 ml) and a piece (720 mg, 10×10×2 mm) of sintered hydroxyapatite (APP-100; PENTAX Corp.) were put into a 15-ml polypropylene tube and the tube was sealed. The tube was shaken horizontally at about 120 times per minute for two days. After the shaking, the amount of phosphorus dissolved from the sintered hydroxyapatite was measured in each test solution by high-frequency inductively coupled plasma atomic emission spectrophotometry (ICP-AES). Another test was conducted as a negative control in the same manner as above, using a 2 wt. % citric acid solution (adjusted to pH 2.5 with sodium hydrate) as a test solution. Still another test was conducted as a positive control in the same manner as above, using CaCl2 (10 mM) as a subject substance. Taking the amount of phosphorus dissolved in the negative control as 100%, the phosphorus dissolution rate (%) was calculated for each subject substance.

Structure (SMILES) | Phosphorus Dissolution Rate (%) (subject substance 0.2 wt. %) | Phosphorus Dissolution Rate (%) (subject substance 0.5 wt. %) | inhibitory effect on phosphorus dissolution from the sintered hydroxyapatite due to citric acid (in words) (summary of Table 1 results) | Phosphorus Dissolution Rate (%) (subject substance 10 mM)
OC[C@H]1O[C@@H]2O[C@H]3[C@H](O)[C@@H](O)[C@@H](O[C@H]4[C@H](O)[C@@H](O)[C@@H](O[C@H]5[C@H](O)[C@@H](O)[C@@H](O[C@H]6[C@H](O)[C@@H](O)[C@@H](O[C@H]7[C@H](O)[C@@H](O)[C@@H](O[C@H]8[C@H](O)[C@@H](O)[C@@H](O[C@H]1[C@H](O)[C@H]2O)O[C@@H]8CO)O[C@@H]7CO)O[C@@H]6CO)O[C@@H]5CO)O[C@@H]4CO)O[C@@H]3CO [β-cyclodextrin] | 98.6% | 79.7% | effectively suppressed phosphorus dissolution | –
[Ca+2].[Cl-].[Cl-] [CaCl2, reference compound] | – | – | – | 75.0%

— patent US20090274636A1, “TOOTH ENAMEL DISSOLUTION INHIBITOR” (priority 2006, published 2009)
